Drawing on US9120789B2, “1-(5-tert-butyl-2-phenyl-2H-pyrazol-3-yl)-3-[2-fluoro-4-(1-methyl-2-oxo-2,3-dihydro-1H-imidazo[4,5-b]pyridin-7-yloxy)-phenyl]-urea and related compounds and their use in therapy” (CANCER RESEARCH TECHNOLOGY LIMITED, priority 2010, dated 2015), this text covers IC50 and GI50 for two compounds.

SMILES strings stand for the structures.

The target in one test is B-RAF (Homo sapiens, UniProt P15056). The experiment in a line: Assay A - DELFIA kinase assay. It counts as biochemical. The conditions noted are these: 100 μM ATP; mean of usually three assays; read-out: Assay A BRAF IC50. The method, then: Biological Methods—Assay A—DELFIA Kinase Assay
B-RAF, sequence (P15056 whole entry): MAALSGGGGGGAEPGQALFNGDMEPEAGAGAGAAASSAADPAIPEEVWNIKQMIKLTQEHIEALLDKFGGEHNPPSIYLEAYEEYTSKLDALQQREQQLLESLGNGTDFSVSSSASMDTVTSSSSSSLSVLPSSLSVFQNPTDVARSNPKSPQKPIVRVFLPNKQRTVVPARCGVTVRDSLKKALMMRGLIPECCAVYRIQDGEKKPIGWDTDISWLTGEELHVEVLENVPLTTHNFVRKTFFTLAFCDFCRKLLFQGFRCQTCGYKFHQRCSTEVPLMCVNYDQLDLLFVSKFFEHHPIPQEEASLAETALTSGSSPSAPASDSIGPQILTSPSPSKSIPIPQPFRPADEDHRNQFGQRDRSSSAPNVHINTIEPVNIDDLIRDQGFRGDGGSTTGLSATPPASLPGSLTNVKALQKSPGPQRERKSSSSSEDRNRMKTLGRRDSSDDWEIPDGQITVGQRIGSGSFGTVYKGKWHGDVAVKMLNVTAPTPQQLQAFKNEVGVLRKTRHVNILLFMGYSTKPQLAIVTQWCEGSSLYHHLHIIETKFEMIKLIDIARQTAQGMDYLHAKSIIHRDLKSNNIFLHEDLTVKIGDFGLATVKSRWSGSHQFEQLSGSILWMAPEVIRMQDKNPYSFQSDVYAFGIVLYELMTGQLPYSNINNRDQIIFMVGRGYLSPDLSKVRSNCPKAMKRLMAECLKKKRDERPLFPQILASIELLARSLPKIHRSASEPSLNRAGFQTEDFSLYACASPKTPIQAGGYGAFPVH
Compounds were assessed by a kinase assay performed according to the following protocol.
The following reagents were prepared:
DELFIA Kinase Buffer (DKB):
DKB1 (DKB with B-RAF and MEK Protein):
Combine 4950 μL of DKB and 50 μL of 2.5 mg/mL GST-MEK stock (to give 1 mg of MEK per 40 μL). Then add 22.5 μL of B-RAF to give ˜0.2 μL of B-RAF per 40 μL.
DKB2 (DKB with MEK Protein):
Combine 4950 μL of DKB and 50 μL of 2.5 mg/mL GST-MEK stock (to give […] of MEK per 40 μL). Use 500 μL of this for the blow out (BO) and the empty vector (EV) control.
100 mM stock, dilute to 500 μM to give 100 μM final concentration in assay.
Inhibitors (Test Compounds):
Phospho-MEK1/2 CST #9121S diluted 1:1000 in DELFIA assay buffer (AB). Pre-incubate antibody in the AB for 30 minutes at room temperature prior to use.
Anti-rabbit-Eur labelled secondary Perkin Elmer #AD0105 diluted 1:1000 in DELFIA assay buffer (AB). Pre-incubate antibody in the AB for 30 minutes at room temperature prior to use. (Primary and secondary antibodies were incubated together.)
DELFIA assay buffer Perkin Elmer #4002-0010.
DELFIA enhancement solution Perkin Elmer #4001-0010.
96 well glutathione-coated black plate Perbio #15340.
1. Preblock wells with 5% milk in TBS for 1 hour.
2. Wash wells 3× with 200 μL TBS.
3. Plate out 40 μL of DKB1 for all inhibitors (test compounds), DMSO control, and optionally other control compounds.
4. Plate out 40 μL of DKB2 for BO and EV wells.
5. Add inhibitors (test compounds) at 0.5 μL per well according to desired plate layout.
6. Add 0.5 μL DMSO to vehicle control wells.
7. Add 2 μL of B-RAF to BO and EV wells.
8. Pre-incubate with inhibitors (test compounds) for 10 minutes at room temperature with shaking.
9. Add 10 μL of 500 μM ATP stock, in DKB, to give 100 μM assay concentration.
10. Seal plates with TopSeal and incubate at room temperature with shaking for 45 minutes.
11. Wash plates 3× with 200 μL 0.1% Tween20/Water to terminate reaction.
12. Add 50 μL per well of antibody mix and incubate for 1 hour at room temperature with shaking.
13. Wash plates 3× with 200 μL 0.1% Tween20/Water.
14. Add 100 μL DELFIA enhancement solution per well, cover in foil, and incubate at room temperature for 30 minutes with shaking.
15. Read on Victor using Europium protocol.
(§1) Values for the blank (Empty Vector) are subtracted from all values. The DMSO controls are set as 100% activity and assay points (the response) are calculated as a percentage of the DMSO control. Data are plotted using Graphpad Prism software and a non-linear regression line is calculated using a variable slope sigmoidal dose-response equation: Y=Bottom+[Top−Bottom]/[1+10^((Log EC50−X)*HillSlope)] where X is the logarithm of concentration and Y is the response. The IC50 generated by this procedure is the concentration of the drug that produces a percentage control fluorescence value midway between the saturation, and zero-effect plateaus. Three independent assays are usually performed and the mean IC50 is reported. Biological Methods—Assay B—Cell Based Phosho-ERK Assay

For test [1], the system named is pERK in mutant BRAF WM266.4 cells. The experiment in a line: Assay B - cell based phospho-ERK assay. The conditions noted are these: Homo sapiens, WM 266-4, 6 hours incubation. The method, then:
as §1
Compounds were assessed using a cell-based assay which was performed according to the following protocol.
Plate out 16,000 mutant BRAF WM266.4 cells/well in 99 μL medium in a 96-well plate.
1. Add 1 μL inhibitor (test compound) to the cells (total […]).
2. Incubate the cells with test compound for 6 hours at 37° C.
3. Aspirate off the solution from all of the wells.
4. Fixate the cells with 100 μL 4% formaldehyde/0.25% Triton X-100 PBS per well.
5. Incubate the plate for 1 hour at 4° C.
6. Aspirate off the fixing solution and add 300 μL TBS per well.
7. Leave the plate overnight at 4° C.
1. Wash the plate 2× with 200 μL PBS per well.
2. Block with 100 μL 5% dried milk in TBS.
3. Incubate the plate for 20 minutes at 37° C.
4. Wash the plate 2× with 0.1% tween/H2O.
5. Add 50 μL of 3 μg/mL primary antibody pERK (Sigma M8159), diluted in 5% milk powder/TBS, to each well.
6. Incubate the plate for 2 hours at 37° C.
7. Wash the plate 3× with 0.1% tween/H2O.
8. Add 50 μL of 0.45 μg/mL secondary Europium-labelled anti-mouse antibody (Perkin Elmer) to each well.
9. Incubate the plate for 1 hour at 37° C.
10. Wash the plate 3× with 0.1% tween/H2O.
11. Add 100 μL enhancement solution (Perkin Elmer) to each well.
12. Leave the plate for approximately 10 minutes at room temperature before gently shaking the plate.
13. Read Europium Time Resolved Fluorescence in Victor2.
14. Wash the plate 2× with 0.1% tween/H2O.
15. Measure the protein concentration with BCA (Sigma) by adding 200 μL of solution per well.
16. Incubate the plate for 30 minutes at 37° C.
17. Read absorbance levels at 570 nm in a plate reader.
Note that Europium counts are normalised for protein levels by dividing counts by absorbance.
as §1, with “blank (no cells)” for “blank (Empty Vector)”, “the response).” for “the response.”, “Methods—Assay C—SRB Cell Proliferation” for “Methods—Assay B—Cell Based Phosho-ERK”, “Assay (SRB GI50)” for “Assay”

In test [2] the test system is WM266.4 melanoma cell line (mutant BRAF). Description: Assay C - SRB cell proliferation assay, WM266.4. Format: cell-based. The conditions noted are these: Homo sapiens, WM 266-4, 120 h; WM266.4, 5 days growth. The method, then: as §1, with “blank (no cells)” for “blank (Empty Vector)”, “the response).” for “the response.”, “Methods—Assay C—SRB Cell Proliferation” for “Methods—Assay B—Cell Based Phosho-ERK”, “Assay (SRB GI50)” for “Assay”
Cell lines (e.g., WM266.4 and A375M melanoma cell lines; SW620 colorectal carcinoma cell line) are routinely cultured in DMEM or RPMI1640 supplemented with 10% foetal bovine serum, at 37° C., in 10% CO2 water saturated atmosphere. Cultures are maintained in exponential growth phase by sub-culturing before having become confluent (3-5 day intervals). Single cell suspensions are prepared by harvesting an 80 cm^2 tissue culture flask with 5 mL commercial trypsin EDTA. After 5 minutes, the detached cells are mixed with 5 mL fully complemented culture medium and centrifugally pelleted (1000 rpm for 7 minutes). After aspirating the supernatant, the cell pellet is re-suspended in 10 mL fresh medium and the cells fully disaggregated by drawing the whole volume up/down 5 times through a 19-gauge needle. The concentration of the cells is determined using a haemocytometer ( 1/10 dilution). A suitable volume to give at least a 2-fold excess for the number of tests being conducted, typically 100-200 mL, is prepared by diluting the cell suspension to 10,000-40,000/mL, and 100 μL/well dispensed into 96 well plates using a programmable 8-channel peristaltic pump, giving 1000-4000 cells/well, leaving column 12 blank. The plates are returned to the incubator for 24 hours to allow the cells to re-attach.
The compounds being tested are prepared at 10 mM in DMSO. Aliquots (24 μL) are diluted into 1.2 mL culture medium giving 200 μM, and 10 serial dilutions of 3× performed by transferring 80 μL to 160 μL. Aliquots (100 μL) of each dilution are added to the wells, using an 8-channel pipettor, thus performing a final further 2× dilution, and giving doses ranging from 100 μM to 0.005 μM. Column 11 receives plain culture medium only. Each compound is tested in quadruplicate, each replicate being the average of four wells.
After a further 5 days growth, the plates are emptied, and the cells are fixed in 10% trichloroacteic acid for 30 minutes at 4° C. After thorough rinsing in running tap water, the plates are dried, and stained by adding 50 μL of a solution of 0.1% sulphorhodamine-B in 1% acetic acid, for 10 minutes at room temperature. The stain is poured out and the plates thoroughly rinsed under a stream of 1% acetic acid, thus removing unbound stain, and dried. The bound stain is taken into solution by addition of 100 μL Tris buffer pH 8, followed by 10 minutes on a plate-shaker (approximately 500 rpm). The absorbance at 540 nm in each well (being proportional to the number of cells present) is determined using a plate reader.
After averaging the blank values in column 12 this was subtracted from all values, and results expressed as a percentage of the untreated value (column 11). […] The GI50 generated by this procedure is the concentration of the drug that produces a percentage control A540 midway between the saturation, and zero-effect plateaus.

In the case of `Cc1ccc(-n2nc(C(C)(C)C)cc2NC(=O)Nc2ccc(Oc3ccnc4[nH]c(=O)n(C)c34)cc2F)cc1` [AA-02, 1-(3-Tert-butyl-1-p-tolyl-1H-pyrazol-5-yl)-3-(2-fluoro-4-(1-N-methyl-2-oxo-2,3-dihydro-1H-imidazo[4,5-b]pyridin-7-yloxy)phenyl)urea], the IC50 (commonly the concentration that inhibits the measured activity by half) was 197 nM at B-RAF and 20 nM in test [1]. Also, growth in test [2] was halved (GI50) at 57 nM.

As to `Cn1c(=O)[nH]c2nccc(Oc3ccc(NC(=O)Nc4cc(C(C)(C)C)nn4-c4ccc(Cl)cc4)c(F)c3)c21` [AA-03, 1-(3-Tert-butyl-1-(4-chlorophenyl)-1H-pyrazol-5-yl)-3-(2-fluoro-4-(1-N-methyl-2-oxo-2,3-dihydro-1H-imidazo[4,5-b]pyridin-7-yloxy)phenyl)urea], the results for the IC50 (on B-RAF; in test [1]) were 302 nM and 60 nM, respectively. Besides, the GI50 (commonly the concentration that inhibits growth by half) in test [2] was 121 nM.
